# Results published in patent US20250295646A1, “METHODS OF USE OF T-TYPE CALCIUM CHANNEL MODULATORS” (Praxis Precision Medicines, Inc., priority 2022, published 2025).
# Test system: adult patients with essential tremor
# Test: Example 16: accelerometer-based (Kinesia ONE) TETRAS upper limb score
# Type: in vivo, human
# Excerpt: Accelerometer (Kinesia ONE) TETRAS assessments were generally consistent with those conducted at the clinic. Accelerometer upper limb score values are summarized for Part A, the open-label titration phase of Part B, and the randomized withdrawal phase of Part B in Table 37, Table 38, and Table 39, respectively
# [1] = Day 70, Part B, baseline upper limb score ≥10
# [2] = Part A (N = 7), Day 1, Post - dose
# [3] = Part B Open-Label Titration (N = 17), Day 1, Post - dose
# [4] = Part B Open-Label Titration (N = 17), Day 7
# [5] = Part B Open-Label Titration (N = 17), Day 21
structure (smiles),measurement,setting,value
"CC(C)(C)NC(=O)CN1CCC(CNC(=O)c2cc(F)cc(Cl)c2)CC1 [compound of formula (I), N-((1-(2-(tert-butylamino)-2-oxoethyl)piperidin-4-yl)methyl)-3-chloro-5-fluorobenzamide]","Accelerometer-Based Upper Limb Score, Change from Randomization, LS Mean (SE) for Difference (Formula (I) - Placebo)",[1],0.341 (1.8367)
same,"Accelerometer-Based Upper Limb Score, Change from Randomization, p-value for LS Mean Difference (Formula (I) - Placebo)",[1],0.8597
same,"Accelerometer-Based Upper Limb Score, LS Mean Percentage Change Difference (Formula (I) - Placebo)",[1],3.6%
same,"Accelerometer-Based Upper Limb Score, Change from Baseline, Median",[2],0.20
same,"Accelerometer-Based Upper Limb Score, observed, Median",[2],9.40
same,"Accelerometer-based Upper Limb Score, Change from Baseline, LS Mean",[2],0.417
same,"Accelerometer-based Upper Limb Score, Change from Baseline, Mean",[2],0.42
same,"Accelerometer-based Upper Limb Score, observed, Mean",[2],10.93
same,LS Mean Percentage Change in Tremor Amplitude,[2],7.7%
same,"Percentage Change from Baseline in Tremor Amplitude, Mean",[2],7.49%
same,"Percentage Change from Baseline in Tremor Amplitude, Median",[2],3.76%
same,"Accelerometer-Based Upper Limb Score, Change from Baseline, Median","Part A (N = 7), Day 7",−0.40
same,"Accelerometer-Based Upper Limb Score, observed, Median","Part A (N = 7), Day 7",10.38
same,"Accelerometer-based Upper Limb Score, Change from Baseline, LS Mean","Part A (N = 7), Day 7",−1.100
same,"Accelerometer-based Upper Limb Score, Change from Baseline, Mean","Part A (N = 7), Day 7",−1.10
same,"Accelerometer-based Upper Limb Score, observed, Mean","Part A (N = 7), Day 7",9.31
same,LS Mean Percentage Change in Tremor Amplitude,"Part A (N = 7), Day 7",−19.0%
same,"Percentage Change from Baseline in Tremor Amplitude, Mean","Part A (N = 7), Day 7",−15.89%
same,"Percentage Change from Baseline in Tremor Amplitude, Median","Part A (N = 7), Day 7",−7.39%
same,"Accelerometer-Based Upper Limb Score, Change from Baseline, Median","Part A (N = 7), Day 14",−1.15
same,"Accelerometer-Based Upper Limb Score, observed, Median","Part A (N = 7), Day 14",8.30
same,"Accelerometer-based Upper Limb Score, Change from Baseline, LS Mean","Part A (N = 7), Day 14",−1.300
same,"Accelerometer-based Upper Limb Score, Change from Baseline, Mean","Part A (N = 7), Day 14",−1.30
same,"Accelerometer-based Upper Limb Score, observed, Mean","Part A (N = 7), Day 14",8.23
same,LS Mean Percentage Change in Tremor Amplitude,"Part A (N = 7), Day 14",−22.1%
same,"Percentage Change from Baseline in Tremor Amplitude, Mean","Part A (N = 7), Day 14",−20.27%
same,"Percentage Change from Baseline in Tremor Amplitude, Median","Part A (N = 7), Day 14",−19.80%
same,"Accelerometer-Based Upper Limb Score, Change from Baseline, Median","Part A (N = 7), Day 21",−1.05
same,"Accelerometer-Based Upper Limb Score, observed, Median","Part A (N = 7), Day 21",10.98
same,"Accelerometer-based Upper Limb Score, Change from Baseline, LS Mean","Part A (N = 7), Day 21",−0.117
same,"Accelerometer-based Upper Limb Score, Change from Baseline, Mean","Part A (N = 7), Day 21",−0.12
same,"Accelerometer-based Upper Limb Score, observed, Mean","Part A (N = 7), Day 21",10.11
same,LS Mean Percentage Change in Tremor Amplitude,"Part A (N = 7), Day 21",−2.2%
same,"Percentage Change from Baseline in Tremor Amplitude, Mean","Part A (N = 7), Day 21",−2.75%
same,"Percentage Change from Baseline in Tremor Amplitude, Median","Part A (N = 7), Day 21",−18.25%
same,"Accelerometer-Based Upper Limb Score, Change from Baseline, LS Mean (SE)",[3],−0.633 (0.3456)
same,"Accelerometer-Based Upper Limb Score, Change from Baseline, Mean (SD)",[3],−0.56 (1.700)
same,"Accelerometer-Based Upper Limb Score, Change from Baseline, Median",[3],−0.60
same,"Accelerometer-Based Upper Limb Score, observed, Mean (SD)",[3],9.67 (3.109)
same,"Accelerometer-Based Upper Limb Score, observed, Median",[3],10.50
same,LS Mean Percentage Change in Tremor Amplitude,[3],−11.4%
same,"Percentage Change from Baseline in Tremor Amplitude, Mean (SD)",[3],−8.42 (25.587) %
same,"Percentage Change from Baseline in Tremor Amplitude, Median",[3],−10.87%
same,"Accelerometer-Based Upper Limb Score, Change from Baseline, LS Mean (SE)",[4],−1.235 (0.3722)
same,"Accelerometer-Based Upper Limb Score, Change from Baseline, Mean (SD)",[4],−1.15 (2.151)
same,"Accelerometer-Based Upper Limb Score, Change from Baseline, Median",[4],−1.20
same,"Accelerometer-Based Upper Limb Score, observed, Mean (SD)",[4],8.91 (3.335)
same,"Accelerometer-Based Upper Limb Score, observed, Median",[4],8.85
same,LS Mean Percentage Change in Tremor Amplitude,[4],−21.1%
same,"Percentage Change from Baseline in Tremor Amplitude, Mean (SD)",[4],−15.44 (29.596) %
same,"Percentage Change from Baseline in Tremor Amplitude, Median",[4],−19.95%
same,"Accelerometer-Based Upper Limb Score, Change from Baseline, LS Mean (SE)",[5],−1.835 (0.4715)
same,"Accelerometer-Based Upper Limb Score, Change from Baseline, Mean (SD)",[5],−1.57 (2.142)
same,"Accelerometer-Based Upper Limb Score, Change from Baseline, Median",[5],−1.00
same,"Accelerometer-Based Upper Limb Score, observed, Mean (SD)",[5],9.09 (2.989)
same,"Accelerometer-Based Upper Limb Score, observed, Median",[5],8.95
same,LS Mean Percentage Change in Tremor Amplitude,[5],−29.7%
same,"Percentage Change from Baseline in Tremor Amplitude, Mean (SD)",[5],−21.20 (27.676) %
